Reference: US11180462B2, “Microbiocidal oxadiazole derivatives” (SYNGENTA PARTICIPATIONS AG, priority 2015, dated 2021)

Columns and labels:
[1] = system: Glomerella lagenarium (Colletotrichum lagenarium); experiment: Fungicidal activity against Glomerella lagenarium (Colletotrichum lagenarium) liquid culture / cucumber / preventative (anthracnose); assay type: cell-based; conditions: Colletotrichum orbiculare; 20 ppm in the applied formulation; liquid culture (PDB), growth inhibition measured photometrically after 3 to 4 days; compared to untreated control; read-out: disease control
Procedure, shortened: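 Percent activity against the untreated check was derived from photometric growth measurements made 2 to 7 days after conidia in potato dextrose broth were combined with compound at 20 ppm. Cultures were kept dark at 24 °C and 96% humidity.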

[2] = system: Puccinia recondita f. Sp. Tritici; experiment: Fungicidal activity against Puccinia recondita f. sp. tritici / wheat / leaf disc preventative (brown rust); assay type: in vivo; conditions: foliar, 200 ppm in the applied formulation, wheat leaf segments, preventative, compared to untreated control leaf disks, read-out: disease control
Procedure, shortened: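 Percent disease control relative to untreated check segments is scored once disease develops, 7 to 9 days after application. Wheat cv. Kanzler segments receive compound spray (200 ppm in formulation) one day before spore inoculation, then sit at 19° C. and 75% rh under 12 h light/12 h dark.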

[3] = system: Puccinia recondita f. Sp. Tritici; experiment: Fungicidal activity against Puccinia recondita f. sp. tritici / wheat / leaf disc curative (brown rust); assay type: in vivo; conditions: foliar, 24 h, 200 ppm in the applied formulation, wheat leaf segments, curative (applied 1 day after inoculation), compared to untreated control leaf disks, read-out: disease control
Procedure, shortened: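 Curative test on wheat leaf segments (cv. Kanzler) on agar, inoculated with spore suspension and held dark at 19° C, 75% RH; formulated compound in water applied 1 day after inoculation. Incubated at 19° C, 75% RH, 12 h light/12 h dark; percent disease control versus untreated scored 6 to 8 days after application.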

COCC1(N(C)C(=O)N(C)Cc2ccc(-c3noc(C(F)(F)F)n3)cc2)CC1 [Compound 3.76, 1-[1-(methoxymethyl)-cyclopropyl]-1,3-dimethyl-3-[[4-[5-(trifluoromethyl)-1,2,4-oxadiazol-3-yl]phenyl]methyl]urea]
≥ 80%: inhibition of growth at 20 ppm [1] | pest or weed control at 200 ppm [2] | pest or weed control at 200 ppm [3]

CC1(C(=O)N(Cc2ccc(-c3noc(C(F)(F)F)n3)cc2)CC2CCCO2)COC1 (stereo not drawn) [Compound 1.438, 3-methyl-N-(tetrahydrofuran-2-ylmethyl)-N-[[4-[5-(trifluoromethyl)-1,2,4-oxadiazol-3-yl]phenyl)methyl]-oxetane-3-carboxamide]
≥ 80%: inhibition of growth at 20 ppm [1] | pest or weed control at 200 ppm [2] | pest or weed control at 200 ppm [3]

CC=C(C)C(=O)N(CCOC)Cc1ccc(-c2noc(C(F)(F)F)n2)cc1 [Compound 1.330, N-(2-methoxyethyl)-2-methyl-N-[[4-[5-(trifluoromethyl)-1,2,4-oxadiazol-3-yl]phenyl]methyl]-but-2-enamide]
≥ 80%: inhibition of growth at 20 ppm [1] | pest or weed control at 200 ppm [2] | pest or weed control at 200 ppm [3]

CCN(Cc1ccc(-c2noc(C(F)(F)F)n2)cc1)C(=O)N(CCOC)CCOC [Compound 3.102, 1-ethyl-3,3-bis(2-methoxyethyl)-1-[[4-[5-(trifluoromethyl)-1,2,4-oxadiazol-3-yl]phenyl]methyl]urea]
≥ 80%: inhibition of growth at 20 ppm [1] | pest or weed control at 200 ppm [2] | pest or weed control at 200 ppm [3]

COCCN(C)C(=O)N(C)Cc1ccc(-c2noc(C(F)(F)F)n2)cc1 [Compound 3.67, 1-(2-methoxyethyl)-1,3-dimethyl-3-[[4-[5-(trifluoromethyl)-1,2,4-oxadiazol-3-yl]phenyl]methyl]urea]
≥ 80%: inhibition of growth at 20 ppm [1] | pest or weed control at 200 ppm [2] | pest or weed control at 200 ppm [3]

O=C(C1CCCCO1)N(Cc1ccc(-c2noc(C(F)(F)F)n2)cc1)CC1CCCO1 (stereo not drawn) [Compound 1.411, N-(tetrahydrofuran-2-ylmethyl)-N-[[4-[5-(trifluoromethyl)-1,2,4-oxadiazol-3-yl]phenyl]methyl]-tetrahydropyran-2-carboxamide]
≥ 80%: inhibition of growth at 20 ppm [1] | pest or weed control at 200 ppm [2] | pest or weed control at 200 ppm [3]

CN(Cc1ccc(-c2noc(C(F)(F)F)n2)cc1)C(=O)CCl [Compound 1.522, 2-chloro-N-methyl-N-[[4-[5-(trifluoromethyl)-1,2,4-oxadiazol-3-yl]phenyl]methyl]-acetamide]
≥ 80%: inhibition of growth at 20 ppm [1] | pest or weed control at 200 ppm [2] | pest or weed control at 200 ppm [3]

COCCN(Cc1ccc(-c2noc(C(F)(F)F)n2)cc1)C(=O)C1CCCC1 [Compound 1.332, N-(2-methoxyethyl)-N-[[4-[5-(trifluoromethyl)-1,2,4-oxadiazol-3-yl]phenyl]methyl]-cyclopentane-carboxamide]
≥ 80%: inhibition of growth at 20 ppm [1] | pest or weed control at 200 ppm [2] | pest or weed control at 200 ppm [3]

CC(C)N(C)C(=O)N(C)Cc1ccc(-c2noc(C(F)(F)F)n2)cc1 [Compound 3.79, 1-isopropyl-1,3-dimethyl-3-[[4-[5-(trifluoromethyl)-1,2,4-oxadiazol-3-yl]phenyl]methyl]urea]
≥ 80%: inhibition of growth at 20 ppm [1] | pest or weed control at 200 ppm [2] | pest or weed control at 200 ppm [3]

CC#CC(=O)N(OC)C(C)c1ccc(-c2noc(C(F)(F)F)n2)cc1 (stereo not drawn) [Compound 1.248, N-methoxy-N-[1-[4-[5-(trifluoromethyl)-1,2,4-oxadiazol-3-yl]phenyl]ethyl]but-2-ynamide]
≥ 80%: inhibition of growth at 20 ppm [1] | pest or weed control at 200 ppm [2] | pest or weed control at 200 ppm [3]

COCCCC(=O)N(Cc1ccc(-c2noc(C(F)(F)F)n2)cc1)CC1CCCO1 (stereo not drawn) [Compound 1.452, 4-methoxy-N-(tetrahydrofuran-2-ylmethyl)-N-[[4-[5-(trifluoromethyl)-1,2,4-oxadiazol-3-yl]phenyl]methyl]-butanamide]
≥ 80%: inhibition of growth at 20 ppm [1] | pest or weed control at 200 ppm [2] | pest or weed control at 200 ppm [3]

CCN(CC)C(=O)N(Cc1ccc(-c2noc(C(F)(F)F)n2)cc1)OC [Compound 3.64, 1,1-diethyl-3-methoxy-3-[[4-[5-(trifluoromethyl)-1,2,4-oxadiazol-3-yl]phenyl]methyl]urea]
≥ 80%: inhibition of growth at 20 ppm [1] | pest or weed control at 200 ppm [2] | pest or weed control at 200 ppm [3]

CON(C(=O)C1OCCO1)C(C)c1ccc(-c2noc(C(F)(F)F)n2)cc1 (stereo not drawn) [Compound 1.276, N-methoxy-N-[1-[4-[5-(trifluoromethyl)-1,2,4-oxadiazol-3-yl]phenyl]ethyl]-1,3-dioxolane-2-carboxamide]
≥ 80%: inhibition of growth at 20 ppm [1] | pest or weed control at 200 ppm [2] | pest or weed control at 200 ppm [3]

CN(Cc1ccc(-c2noc(C(F)(F)F)n2)cc1)C(=O)N1CCCO1 [Compound 3.69, N-methyl-N-[[4-[5-(trifluoromethyl)-1,2,4-oxadiazol-3-yl]phenyl]methyl]-isoxazolidine-2-carboxamide]
≥ 80%: inhibition of growth at 20 ppm [1] | pest or weed control at 200 ppm [2] | pest or weed control at 200 ppm [3]

C#CCN(C(=O)N(C)Cc1ccc(-c2noc(C(F)(F)F)n2)cc1)C1CC1 [Compound 3.80, 1-cyclopropyl-3-methyl-1-prop-2-ynyl-3-[[4-[5-(trifluoromethyl)-1,2,4-oxadiazol-3-yl]phenyl]methyl]urea]
≥ 80%: inhibition of growth at 20 ppm [1] | pest or weed control at 200 ppm [2] | pest or weed control at 200 ppm [3]

O=C(C1CCC1)N(Cc1ccc(-c2noc(C(F)(F)F)n2)cc1)Cc1ccco1 [Compound 1.458, N-(2-furylmethyl)-N-[[4-[5-(trifluoromethyl)-1,2,4-oxadiazol-3-yl]phenyl]methyl]-cyclobutane-carboxamide]
≥ 80%: inhibition of growth at 20 ppm [1] | pest or weed control at 200 ppm [2] | pest or weed control at 200 ppm [3]

O=C(CC(F)(F)F)N(Cc1ccc(-c2noc(C(F)(F)F)n2)cc1)CC1CCCO1 (stereo not drawn) [Compound 1.448, 3,3,3-trifluoro-N-(tetrahydrofuran-2-ylmethyl)-N-[[4-[5-(trifluoromethyl)-1,2,4-oxadiazol-3-yl]phenyl]methyl]-propanamide]
≥ 80%: inhibition of growth at 20 ppm [1] | pest or weed control at 200 ppm [2] | pest or weed control at 200 ppm [3]

CON(C(=O)COC(C)=O)C(C)c1ccc(-c2noc(C(F)(F)F)n2)cc1 (stereo not drawn) [Compound 1.270, [2-[methoxy-[1-[4-[5-(trifluoromethyl)-1,2,4-oxadiazol-3-yl]phenyl]ethyl]-amino]-2-oxo-ethyl] acetate]
≥ 80%: inhibition of growth at 20 ppm [1] | pest or weed control at 200 ppm [2] | pest or weed control at 200 ppm [3]

COCCN(Cc1ccc(-c2noc(C(F)(F)F)n2)cc1)C(=O)c1ccoc1 [Compound 1.362, N-(2-methoxyethyl)-N-[[4-[5-(trifluoromethyl)-1,2,4-oxadiazol-3-yl]phenyl]methyl]-furan-3-carboxamide]
≥ 80%: inhibition of growth at 20 ppm [1] | pest or weed control at 200 ppm [2] | pest or weed control at 200 ppm [3]

CCCN(C)C(=O)N(CC)Cc1ccc(-c2noc(C(F)(F)F)n2)cc1 [Compound 3.94, 1-ethyl-3-methyl-3-propyl-1-[[4-[5-(trifluoromethyl)-1,2,4-oxadiazol-3-yl]phenyl]methyl]urea]
≥ 80%: inhibition of growth at 20 ppm [1] | pest or weed control at 200 ppm [2] | pest or weed control at 200 ppm [3]

CC(C)(C)C(=O)N(Cc1ccc(-c2noc(C(F)(F)F)n2)cc1)CC1CC1 [Compound 1.225, N-(cyclopropylmethyl)-2,2-dimethyl-N-[[4-[5-(trifluoromethyl)-1,2,4-oxadiazol-3-yl]phenyl]methyl]-propanamide]
≥ 80%: inhibition of growth at 20 ppm [1] | pest or weed control at 200 ppm [2] | pest or weed control at 200 ppm [3]

COCCN(C)C(=O)N(Cc1ccc(-c2noc(C(F)(F)F)n2)cc1)OC [Compound 3.63, 1-methoxy-3-(2-methoxyethyl)-3-methyl-1-[[4-[5-(trifluoromethyl)-1,2,4-oxadiazol-3-yl]phenyl]methyl]urea]
≥ 80%: inhibition of growth at 20 ppm [1] | pest or weed control at 200 ppm [2] | pest or weed control at 200 ppm [3]

CCC(C)N(Cc1ccc(-c2noc(C(F)(F)F)n2)cc1)C(=O)C1(C)CC1 (stereo not drawn) [Compound 1.388, 1-methyl-N-sec-butyl-N-[[4-[5-(trifluoromethyl)-1,2,4-oxadiazol-3-yl]phenyl]methyl]-cyclopropane-carboxamide]
≥ 80%: inhibition of growth at 20 ppm [1] | pest or weed control at 200 ppm [2] | pest or weed control at 200 ppm [3]
